# US20240050409A1, “Methods and Compositions for Treating Psychotic Disorders” (SOUND PHARMACEUTICALS INCORPORATED, priority 2014, published 2024)
# Experiments:
# [1] = tested on: 8-oxo-dG staining in the PFC of NVHL rats; assay: 8-oxo-dG labeling (DNA oxidation) in PFC of NVHL rats; type: in vivo, Sprague-Dawley rats
# Text: To assess oxidative stress, DNA oxidation with 8-oxo-7,8-dihydro-20-deoxyguanine (8-oxo-dG) labeling was quantified. […] 3-NT indicates nitration of proteins due to oxidative and nitrosative stress (Radi, 2004), and its increase in NVHL rats was prevented by NAC treatment during development (as shown in FIGS. 9A and 9B). […] A possible explanation for the levels of oxidative stress detected in the adult PFC following an NVHL is the reduced glutamatergic input from ventral hippocampus during development, as blocking NMDA receptors induces oxidative stress in PVI (Behrens et al., 2007).
# To determine the types of interneurons expressing oxidative stress in NVHL rats, 8-oxo-dG with PV, calbindin (CB) and calretinin (CR) was co-labeled. […] About 50% of PVI were co-labeled with 8-oxo-dG, indicating oxidative stress is pervasive in this cell population. A marker of PVI maturation is Wisteria Floribunda agglutinin (WFA), a lectin that recognizes the perineuronal nets (PNN) enwrapping mature cortical PVI. […] PVI may be highly exposed to increased oxidative stress because they make up the majority of fast-spiking interneurons and their high energy metabolism may generate more reactive oxygen species than non-fast spiking neurons.
# Animals: Timed-pregnant Sprague-Dawley rats were obtained at gestational days 13-15 from Charles River (Wilmington, MA) and were individually housed with free access to food and water in a temperature- and humidity-controlled environment with a 12:12h light/dark cycle (lights on at 7:00 AM). When pups reached P5, half of the dams received NAC in their drinking water. Pups were left undisturbed until P7-9 when healthy offspring were randomly separated and received either NVHL or sham surgery. At P21, male and female pups were either transcardially perfused with 4% paraformaldehyde for immunocytochemistry or weaned and housed in groups of two to three, counterbalanced across lesion status. NAC treatment lasted throughout adolescence until P50. After reaching adulthood (>P60), animals were either perfused with 4% paraformaldehyde for immunocytochemistry, perfused with artificial cerebrospinal fluid (aCSF) for slice electrophysiology, utilized for in vivo intracellular recordings, or tested for PPI or MMN.
# Neonatal ventral hippocampal lesion surgery: Between P7 and P9, pups (15-20 g) received either an excitotoxic lesion of the ventral hippocampus (NVHL) or sham procedure, as previously described (Chambers and Lipska, 2011). Pups were anesthetized with hypothermia and secured to a Styrofoam platform attached to a stereotaxic frame (David Kopf Instruments, Tujunga, CA). […]
# SZ = settings: in vivo; cited from earlier work
structure (smiles),measurement,setting,value
"CC(=O)N[C@@H](CS)C(=O)O [NAC, N-acetyl cysteine]",effect on 8-oxo-dG labeling in PV interneurons,"[1]; NVHL rats, developmental treatment",prevented
same,effect on increase in 8-oxo-dG staining in PFC,"[1]; P21 NVHL rats, drinking water 900 mg/l from P5",completely prevented
same,effect on increase in 8-oxo-dG in PFC,"[1]; P61 NVHL rats, drinking water 900 mg/l, P5 to P50",prevented
same,multiple markers of oxidative stress,"[1]; adult NVHL rats, juvenile treatment, to levels comparable to control rats",decreased
same,mismatch negativity in SZ,SZ,improved
